{
  "source": "patent US20240165097A1",
  "about": "“PHARMACEUTICAL COMPOSITION FOR THE TREATMENT OF ALZHEIMER'S DISEASE OR DEMENTIA” (Heptares Therapeutics Limited, priority 2021, published 2024)",
  "key": {"[1]": {"test_system": "patients with mild-to-moderate AD", "experiment": "Example D: Cogstate neuropsychological test battery", "assay_type": "in vivo, human", "text": "(§1) Exploratory PD effects of HTL0018318 were examined via both behavioural (Cogstate neuropsychological test battery [NTB]) tests of cognitive function and electrophysiological (electroencephalogram [EEG] and evoked response potentials [ERPs]) biomarkers. Further details of each biomarker/test and outcome variables are provided below. Twelve-item neuropsychiatric inventory (NPI-12) scores were used to evaluate neuropsychiatric symptoms.\nExploratory pharmacodynamic endpoints (Cogstate tests and EEG/evoked response potential [ERP] biomarkers) were evaluated at screening (practice sessions) and baseline visits, and on Day 28±1. While this study was not powered to detect PD effects of small to moderate ESs, the study sample size provided approximately 80% power to detect a large ES of 0.97 for these endpoints using a significance level of 0.10.\nA Cogstate neuropsychological test battery (NTB; http://www.Cogstate.com/) was administered as a computerised test, with the following cognitive tasks included in the battery. The total duration of the battery was approximately 30-40 minutes: • Identification (IDN)—reaction time (attention) • International shopping list immediate recall (ISL) and international shopping list-delayed recall (ISRL)—number of words recalled (episodic memory/verbal learning) • One back test (ONB)—accuracy and reaction time (working memory/executive function) • Groton maze learning (GML; forward and reverse maze learning)—accuracy (executive function)\nThe IDN is a measure of choice reaction time. In this task, an event (ie, a card turning face-up) occurs in the centre of the computer screen, and the patient must decide “YES” or “NO” as to whether or not this event meets a predefined and unchanging criterion (is the colour of the card red?). For this test, the primary dependent measure of the study was mean of the log10 transformed reaction times for correct responses.\nThe ISL and ISRL are a computer controlled verbal learning/episodic memory test. In this test, patients are read a list of 12 words. Each word is a concrete noun and describes an item of food that is found commonly in the culture/society in which testing is occurring. The examiner tells the patients “I am going to read to you a list of items I want you to get from the supermarket/store/market/shop”. After the 12 words have been read, the patient tries to recall as many of the words as they can immediately (ie, ISL immediate recall). Once they can recall no more words, the same list is read a second time with the words in the same order, after the same instruction. The process of reading the list and waiting for responses occurs 3 times. At the completion of the computerised battery (and with a minimum 20-minute delay) the patient is asked to recall as many of the items as they can from the shopping list (ISL delayed recall; ie, ISRL). For both ISL and ISRL tests, the primary dependent measure was number of words recalled.\nThe ONB memory task is a valid measure of working memory. In this task, the patient is shown a single stimulus in the centre of the computer screen (ie, a card turns face-up). He or she must decide “YES” or “NO” as to whether or not the current card matches the card that was seen on the immediately previous trial. The software measures the speed and accuracy of each response. For this test, the primary dependent measure of the study was arcsine transformation of the proportion of correct responses (i.e. accuracy).\nThe modified GML evaluates short-term memory. The test begins with a chase task to allow the patient to become familiar with the task context. The patient is shown a 10×10 grid of tiles on a computer touch screen. The patient is instructed to chase a moving tile around the grid. Once the patient understands the rules, he or she can proceed onto the timed chase test, where the patient must chase the target for 30 seconds. For the GML, the patient is shown the same 10×10 grid of tiles on a computer touch screen. […]"}, "[2]": {"conditions": "in humans; cited from earlier work"}, "[3]": {"test_system": "patients with mild-to-moderate AD", "experiment": "Example D: twelve-item neuropsychiatric inventory (NPI-12)", "assay_type": "in vivo, human", "procedure": "as §1\nStatistical evaluation was performed using Statistical analysis software (SAS®, SAS Institute, Cary, NC). Changes from baseline in vital signs were analysed using a mixed model for repeated measures with fixed effects for baseline, treatment, time-point and treatment by time-point interaction. The exploratory PD endpoints were analysed using an analysis of covariance with change from baseline as the dependent variable, and baseline and treatment as covariates. The least square means (LSM) for each dose (and difference from placebo) are presented with the 90% CI, P-value, and ES. ES was calculated as the LSM difference from placebo divided by the pooled standard deviation. PD data were considered clinically meaningful when P-values were <0.10 and ESs were >0.4 (ie, moderate to large ES)."}},
  "data": [
    {"smiles": "CCOC(=O)N1C2CCC1CC(N1CCC3(CC1)CNC(=O)C3)C2", "note": "(stereo not shown) [HTL0018318, ethyl 3-(3-oxo-2,8-diazaspiro[4.5]dec-8-yl)-8-azabicyclo[3.2.1]octane-8-carboxylate]", "values": [
      {"measurement": "IDN attention (reaction time), ES", "setting": "[1]; 15 mg, Day 28", "result": 0.62},
      {"measurement": "IDN attention (reaction time), LSM difference from placebo", "setting": "[1]; 15 mg, Day 28", "result": 0.11},
      {"measurement": "ISL composite (immediate and delayed recall), LSM difference from placebo", "setting": "[1]; 25 mg, Day 28", "result": 0.21},
      {"measurement": "ISL composite, ES", "setting": "[1]; 25 mg, Day 28", "result": 0.48},
      {"measurement": "ISL-delayed recall, ES", "setting": "[1]; 25 mg, Day 28", "result": 0.49},
      {"measurement": "ISL-delayed recall, LSM difference from placebo", "setting": "[1]; 25 mg, Day 28", "result": 0.65},
      {"measurement": "ISL-immediate recall, ES", "setting": "[1]; 25 mg, Day 28", "result": 0.34},
      {"measurement": "ISL-immediate recall, LSM difference from placebo", "setting": "[1]; 25 mg, Day 28", "result": 1.11, "unit": "words"},
      {"measurement": "IDN attention (reaction time)", "setting": "[1]; 5 and 25 mg, Day 28", "result": "Non-significant, improvements"},
      {"measurement": "ONB reaction time or accuracy, GML task (forward or reverse) performance", "setting": "[1]; any HTL0018318 dose", "result": "no statistically significant differences"},
      {"measurement": "Tmax", "setting": "[2]", "result": "1 to 2", "unit": "h"},
      {"measurement": "half-life", "setting": "[2]", "result": "approximately 16 hours"},
      {"measurement": "NPI-12 total score, ES", "setting": "[3]; 5 mg", "result": -0.73},
      {"measurement": "NPI-12 total score, LSM difference from placebo", "setting": "[3]; 5 mg", "result": "−1.79"},
      {"measurement": "NPI-12 total score, ES", "setting": "[3]; 15 mg", "result": "−0.54"},
      {"measurement": "NPI-12 total score, ES", "setting": "[3]; 25 mg", "result": "−0.53"}
    ]}
  ]
}
